Test results from patent US12013389B2, “Method of evaluating pathological conditions of heart failure” (NATIONAL UNIVERSITY CORPORATION HOKKAIDO UNIVERSITY, priority 2018, dated 2024).

What was measured:
[1] = tested on: mitochondrial proteins; test: Succinylation assay of mitochondrial proteins (isolated mouse heart mitochondria, western blotting); format: biochemical, mice
Protocol: (§1) First, the heart (left ventricle) extracted from euthanized mice under anesthesia was immersed in a tissue preservation solution BIOPS (2.77 mM CaK2EGTA, 7.23 mM K2EGTA, 5.77 mM Na2ATP, 6.56 mM MgCl2/6H2O, 20 mM taurine, 15 mM Na2 phosphocreatine, 20 mM imidazole, 0.5 mM dithiothreitol, 50 mM MES hydrate, pH 7.1), and then shredded in a tissue isolation buffer (100 mM sucrose, 100 mM KCl, 50 mM tris-HCl, 1 mM KH2PO4, 0.1 mM EGTA, 0.2% bovine serum albumin, pH 7.4). Protease was added to this shredded product to cause an enzyme reaction and homogenization was then performed. The obtained homogenized solution was centrifuged to remove the supernatant, and the precipitate was washed with a tissue isolation buffer twice. A suspension buffer (225 mM mannitol, 75 mM sucrose, 10 mM tris-HCl, 0.1 mM EDTA, pH 7.4) was added to the washed precipitate and the precipitate was dissolved.
[…] Then, the succinylation level of the mitochondrial proteins was measured by western blotting (WB).
Specifically, first, succinyl-CoA (0, 1, 3, or 10 mM) was added to the mitochondria collected from the left ventricle of wild type mice (C57BL/6J), succinylation assay was performed, and the succinylation level of the mitochondrial proteins (the relative amount when the amount of succinylation proteins without addition of succinyl-CoA (0 mM) was set as 1) was examined. […]

[2] = molecular target: T1, mitochondrial complex II (Mus musculus, UniProt Q8K2B3+Q9CQA3+Q9CXV1+Q9CZB0); test: Mitochondrial respiratory capacity related to complex II after adding succinyl-CoA to isolated mitochondria (high-resolution respiration measurement); format: biochemical; conditions: mitochondria isolated from wild type mice
T1 construct: from tissue; host or cells: mitochondria isolated from the left ventricle (myocardium) of C57BL/6J mice (wild type, sham control or HF model)
T1 sequence (Q8K2B3 43-664): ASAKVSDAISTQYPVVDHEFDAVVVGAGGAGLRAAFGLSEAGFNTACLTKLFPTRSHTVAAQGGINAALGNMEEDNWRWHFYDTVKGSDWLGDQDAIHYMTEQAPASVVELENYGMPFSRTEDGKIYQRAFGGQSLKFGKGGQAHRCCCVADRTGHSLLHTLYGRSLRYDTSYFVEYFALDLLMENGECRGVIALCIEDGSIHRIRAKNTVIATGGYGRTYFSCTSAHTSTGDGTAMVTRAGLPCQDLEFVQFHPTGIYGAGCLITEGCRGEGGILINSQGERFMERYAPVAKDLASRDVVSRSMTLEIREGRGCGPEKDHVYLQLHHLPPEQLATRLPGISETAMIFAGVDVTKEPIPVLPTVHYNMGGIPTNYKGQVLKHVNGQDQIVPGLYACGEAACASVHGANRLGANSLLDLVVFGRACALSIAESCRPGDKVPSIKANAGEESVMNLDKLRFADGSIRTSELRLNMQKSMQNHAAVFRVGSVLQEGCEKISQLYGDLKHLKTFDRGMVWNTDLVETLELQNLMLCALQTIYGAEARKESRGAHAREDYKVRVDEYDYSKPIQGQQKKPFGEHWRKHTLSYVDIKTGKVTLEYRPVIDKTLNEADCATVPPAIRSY
T1 sequence (Q9CQA3 29-282 limits assumed): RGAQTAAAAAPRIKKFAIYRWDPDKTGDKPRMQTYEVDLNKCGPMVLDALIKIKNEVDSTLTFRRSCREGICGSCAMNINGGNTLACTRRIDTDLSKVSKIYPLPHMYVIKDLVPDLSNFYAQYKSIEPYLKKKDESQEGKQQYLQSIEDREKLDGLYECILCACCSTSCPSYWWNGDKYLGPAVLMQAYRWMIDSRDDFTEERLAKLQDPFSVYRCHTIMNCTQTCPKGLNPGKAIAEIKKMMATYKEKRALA
T1 sequence (Q9CZB0 30-169): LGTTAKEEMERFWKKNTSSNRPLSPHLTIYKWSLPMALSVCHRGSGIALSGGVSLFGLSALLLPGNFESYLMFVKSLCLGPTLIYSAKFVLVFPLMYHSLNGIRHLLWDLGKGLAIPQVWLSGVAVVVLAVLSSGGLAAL
T1 sequence (Q9CXV1 57-159): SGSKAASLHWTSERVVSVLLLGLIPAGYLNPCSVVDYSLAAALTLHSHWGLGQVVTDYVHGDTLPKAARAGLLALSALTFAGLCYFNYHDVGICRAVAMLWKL
Protocol: as §1, with “A suspension buffer (225 mM mannitol, 75 mM sucrose, 10 mM tris-HCl, 0.1 mM EDTA, pH 7.4) was added to the washed precipitate and the precipitate was dissolved.” left out
A mitochondrial respiratory capacity (oxidative phosphorylation: OXPHOS) was measured by a high-resolution respiration measurement method. […] An oxygen consumption amount was calculated using Datlab software, and in this case, correction was performed per tissue weight or per mitochondrion. […]
(2) 10 mmol/L of glutamic acid, 2 mmol/L of malic acid, and 5 mmol/L of pyruvic acid, which are substrates related to mitochondrial complex I, were added, and the oxygen consumption amount was measured (CI_OXPHOS).
(§2) (3) 10 mmol/L of succinic acid, which is a substrate related to mitochondrial complex II, was added, and the oxygen consumption amount was measured (CI+II_OXPHOS). […]

[3] = tested on: mitochondrial complex II; test: Expression level of mitochondrial complex II per mitochondrion (blue native method, anti-SDHA); format: biochemical; conditions: mitochondria isolated from HF model mice treated with 1 mM succinyl-CoA
Protocol: Based on the results so far, it was clearly understood that the respiratory capacity related to mitochondrial complex II could be controlled by the expression level of mitochondrial complex II per mitochondrion. Therefore, for the mitochondria isolated from the control mice and the HF model mice and the mitochondria isolated from the HF model mice and then treated with 1 mM succinyl-CoA, the expression level of mitochondrial complex II per mitochondrion was evaluated using anti-SDHA mouse monoclonal antibodies (1:1,000, ab14715, commercially available from Abeam) by a blue native method.

[4] = tested on: H9c2 cells; test: Succinylation level of mitochondrial proteins of glycine-treated H9c2 cells; format: cell-based
Protocol: (§3) When glycine was used, glycine was added to the culture medium for cultured H9c2 cells so that the concentration was 100 mM, and the cells were cultured for 6 hours. After culturing, the cells were collected and mitochondria were isolated. Then, the succinylation level of the mitochondrial proteins was measured by WB.
(§4) In addition, in the heme synthesis process, glycine and succinyl-CoA reacted to synthesize ALA. […] The succinylation level and the respiratory capacity related to mitochondrial complex II were examined.

[5] = tested on: H9c2 cells; test: Respiratory capacity related to mitochondrial complex II in glycine-treated H9c2 cells; format: cell-based
Protocol: as §3, §4

[6] = tested on: mitochondrial complex II; test: Respiratory capacity related to complex II in myocardial mitochondria of HF model mice given ALA; format: in vivo; conditions: ALA 50 mg/L in drinking water (6 to 8 mg/kg/day), day 28 after operation
Protocol: (§5) A mitochondrial respiratory capacity (oxidative phosphorylation: OXPHOS) was measured by a high-resolution respiration measurement method. Specifically, isolated mitochondria (50 to 100 μg) or myocardial fibrous tissues (0.5 to 3 mg) after the cell membrane permeation treatment were used as a test sample, and measurement was performed using a mitochondrial oxygen activity/cell metabolic energy analyzing device (product name: “OROBOROS Oxygraph-2 k,” commercially available from Innsbruck) (hereinafter referred to as a “mitochondrial respiratory capacity measurement device” in some cases) under an environment at 37° C. according to the following protocol. An oxygen consumption amount was calculated using Datlab software, and in this case, correction was performed per tissue weight or per mitochondrion.
(4) In order to observe the respiration of OXPHOS of mitochondrial complex II alone, 0.5 μmol/L of rotenone, which is an inhibitor of mitochondrial complex I, was added and the oxygen consumption amount was measured (CII_OXPHOS).
(§6) The left anterior descending coronary artery of the heart of 10- to 12-week old male C57BL/6J mice (body weight of 23 to 26 g) was ligated to cause myocardial infarction (MI). […]

[7] = tested on: mitochondrial complex I and mitochondrial complex II; test: Respiratory capacity related to complex I and complex II in myocardial mitochondria of HF model mice given ALA; format: in vivo; conditions: ALA 50 mg/L in drinking water (6 to 8 mg/kg/day), day 28 after operation
Protocol: as §5, §2
(§7) Specifically, after the HF model mice were underwent a left coronary artery ligation operation, an aqueous solution (50 mg/L) containing ALA (≥98%, commercially available from Sigma Aldrich) was administered by forced drinking (6 to 8 mg/kg/day), and on the 28th day after the operation, the mitochondrial functions were measured using echocardiography and a mitochondrial respiratory capacity measurement device. […]

[8] = tested on: mitochondrial complex IV; test: Respiratory capacity related to complex IV in myocardial mitochondria of HF model mice given ALA; format: in vivo; conditions: ALA 50 mg/L in drinking water (6 to 8 mg/kg/day), day 28 after operation
Protocol: as §5
(8) The respiratory capacity when 2 mmol/L of ascorbic acid and 0.5 mmol/L of TMPD (N,N,N′,N′-tetramethyl-p-phenylenediamine), which are substrates of mitochondrial complex IV, were added was measured. Next, the respiratory capacity when 100 mmol/L of sodium azide as an inhibitor was added was measured, and a difference therebetween was calculated (CIV_OXPHOS).
as §6

[9] = tested on: HF model mice; test: Echocardiography of HF model mice given ALA; format: in vivo; conditions: HF model mice with ALA vs without ALA; 6 to 8 mg/kg/day; day 28 after operation
Protocol: Echocardiography was performed under anesthesia ([…] 8 μL/gBW, intraperitoneal administration) with a short duration of action and least impact on the cardiovascular system. The limbs and tail were fixed in a lying position to an examination table with a tape and the anterior chest wall of the mice was depilated with a depilatory cream. Using an ultrasonic diagnostic device and a 12 MHz linear probe, optimal 2D parasternal short-axis images were visualized at the papillary muscle level. Switching to an M mode method was performed, recording was performed at a recording paper speed of 40 mm/s, and a heart rate, a left ventricular end-diastolic dimension, a left ventricular end-systolic dimension, a left ventricular anterior wall thickness, a left ventricular posterior wall thickness, and a left ventricular fractional shortening were measured.
(§8) The left anterior descending coronary artery of the heart of 10- to 12-week old male C57BL/6J mice (body weight of 23 to 26 g) was ligated to cause myocardial infarction (MI). The body weight of the mice was measured before the operation, a mixed anesthetic containing 3 types including 0.3 mg/kg BW of medetomedine hydrochloride, 4.0 mg/kg BW of midazolam, and 5.0 mg/kg BW of butorphanol tartrate was intraperitoneally administered, and it was confirmed that the depth of anesthesia was sufficient. […]

[10] = tested on: HF model mice; test: Exercise capacity (treadmill) of HF model mice given ALA; format: in vivo; conditions: HF model mice with ALA vs without ALA; treadmill run until exhaustion
Protocol: as §8, §7
In addition, the exercise capacities of the HF model mice without administration of ALA and the HF model mice to which ALA was administered were examined. The exercise capacity was expressed as a product of an exercise time and a body weight. The exercise time was measured using a small animal treadmill, and mice were at rest for 10 minutes, and w-up for 10 minutes (6 m/min, inclination of 10 degrees), and then forced to run until exhaustion by increasing a load (2 m/2 min). […]

[11] = H9c2 cells treated with glycine, succinyl-CoA added

Question: With `CC(C)(COP(=O)(O)OP(=O)(O)OC[C@H]1O[C@@H](n2cnc3c(N)ncnc32)[C@H](O)[C@@H]1OP(=O)(O)O)[C@@H](O)C(=O)NCCC(=O)NCCSC(=O)CCC(=O)O` [succinyl-CoA] as the compound, how does the “succinylation in the mitochondrial protein” value ([1]; mitochondria from left ventricle of wild type mice (C57BL/6J), succinyl-CoA 1, 3 or 10 mM, relative to 0 mM) read?
Answer: increased

Question: What about the “succinylation level of mitochondrial proteins” value ([1]; mitochondria isolated from HF model mice, 0.1 mM succinyl-CoA) of the same compound?
Answer: improved

Question: What about the “respiratory capacity related to mitochondrial complex II” value ([2]; 1 mM succinyl-CoA) of the same compound?
Answer: increased

Question: And the “respiratory capacity related to mitochondrial complex II” value ([2]; 10 mM succinyl-CoA)?
Answer: significantly decreased

Question: And the “amount of mitochondrial complex II (expression level per mitochondrion)” value [3]?
Answer: remained reduced

Question: And the “succinylation level of mitochondrial proteins” value [4, 11]?
Answer: improved

Question: And the “respiratory capacity related to mitochondrial complex II” value [5, 11]?
Answer: improved

Question: What does the source list for `NCC(=O)CCC(=O)O` [ALA, 5-aminolevulinic acid]?
Answer: respiratory capacity related to mitochondrial complex II [6]: improved; respiratory capacity related to mitochondrial complex I and mitochondrial complex II [7]: improved; respiratory capacity related to mitochondrial complex IV [8]: improved; left ventricular fractional shortening (% FS) [9]: significantly improved; exercise capacity (exercise time x body weight) [10]: significantly improved

Question: What does the source list for `NCC(=O)O` [glycine, reference compound]?
Answer: succinylation level of mitochondrial proteins ([4]; H9c2 cells treated with glycine (100 mM, 6 hours)): decreased; respiratory capacity related to mitochondrial complex II ([5]; cells treated with glycine): decreases
